Results published in patent US10780090B2, “Heteroaryl compounds useful as inhibitors of SUMO activating enzyme” (Millennium Pharmaceuticals, Inc., priority 2014, dated 2020).

Biological target: recombinant human SAE enzyme (Homo sapiens (Human), UniProt Q9UBT2)
Experiment: SAE HTRF enzyme assay
Type: biochemical
Conditions: for Percent Inhibition: Concentration 0.111 μM; for IC50: class symbols A/B/C
Description: Example 215: SAE HTRF enzyme assay
The SAE enzymatic reaction totals 50 μl and contains 50 mM HEPES Hemisodium (pH 7.5), 0.05% BSA, 5 mM MgCl2, 0.5 μM ATP, 250 μM GSH, 0.01 μM Ubc9-GST, 0.125 μM Sumo-Flag and 0.11 nM recombinant human SAE enzyme. The enzymatic reaction mixture, with and without inhibitor, Is incubated at 24° C. for 105 min in a 384-well plate before termination with […] of Stop/Detection buffer (0.1M HEPES Hemisodium pH 7.5, 0.05% Tween20, 20 mM EDTA, 410 mM KF, 0.53 nM Europium-Cryptate labeled monoclonal anti-Flag M2 Antibody (CisBio International) and 8.125 μg/ml PHYCOLINK goat anti-GST allophycocyanin (XL-APC) antibody (Prozyme)). After incubation for 2 hours at 24° C., quantification of FRET is performed on the Pherostar™ (BMG Labtech). Percentage inhibition values at a single concentration or enzyme inhibition (IC50) values are determined from those curves. One skilled in the art will appreciate that the values generated either as percentage inhibition at a single concentration or IC50 values are subject to experimental variation.

recombinant human SAE enzyme, sequence (Q9UBT2 whole entry): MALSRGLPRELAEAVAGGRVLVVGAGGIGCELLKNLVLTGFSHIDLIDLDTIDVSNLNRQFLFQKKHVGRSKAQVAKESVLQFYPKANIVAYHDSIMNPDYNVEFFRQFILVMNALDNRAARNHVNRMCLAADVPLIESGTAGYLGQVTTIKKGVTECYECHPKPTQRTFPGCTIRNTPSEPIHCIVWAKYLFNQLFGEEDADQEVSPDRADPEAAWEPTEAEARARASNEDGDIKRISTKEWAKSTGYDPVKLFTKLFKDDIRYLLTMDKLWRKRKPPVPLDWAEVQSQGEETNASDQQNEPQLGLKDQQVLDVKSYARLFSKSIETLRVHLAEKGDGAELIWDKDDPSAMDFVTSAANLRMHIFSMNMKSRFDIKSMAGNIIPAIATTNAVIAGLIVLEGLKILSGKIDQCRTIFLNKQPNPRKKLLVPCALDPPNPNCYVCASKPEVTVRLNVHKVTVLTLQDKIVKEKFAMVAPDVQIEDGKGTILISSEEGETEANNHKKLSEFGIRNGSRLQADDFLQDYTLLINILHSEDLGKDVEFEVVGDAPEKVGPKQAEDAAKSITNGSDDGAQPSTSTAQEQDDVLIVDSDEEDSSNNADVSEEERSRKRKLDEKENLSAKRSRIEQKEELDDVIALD
recombinant human SAE enzyme, sequence (Q9UBE0 whole entry partner): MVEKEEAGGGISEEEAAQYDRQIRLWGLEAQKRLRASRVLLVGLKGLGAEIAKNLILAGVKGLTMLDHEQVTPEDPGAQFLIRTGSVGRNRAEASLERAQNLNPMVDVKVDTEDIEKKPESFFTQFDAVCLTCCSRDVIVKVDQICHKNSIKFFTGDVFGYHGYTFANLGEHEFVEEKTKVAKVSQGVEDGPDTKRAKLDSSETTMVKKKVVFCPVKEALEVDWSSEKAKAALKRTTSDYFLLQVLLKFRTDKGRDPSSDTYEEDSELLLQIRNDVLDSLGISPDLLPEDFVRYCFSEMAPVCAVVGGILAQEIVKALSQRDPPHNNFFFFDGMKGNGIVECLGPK

Row | Structure (SMILES) | Percent Inhibition | IC50 [nM]
1 | C[C@](O)(c1csc(C(=O)c2cncnc2N[C@@H]2C[C@H](COS(N)(=O)=O)[C@@H](O)[C@H]2O)c1)c1cccc(Br)n1 (mixture of isomers) [I-1, [(1R,2R,3S,4R)-4-{[5-({4-[(1S)-1-(6-bromopyridin-2-yl)-1-hydroxyethyl]-2-thienyl}carbonyl)pyrimidin-4-yl]amino}-2,3-dihydroxycyclopentyl]methyl sulfamate and [(1R,2R,3S,4R)-4-({[5-({4-[(1R)-1-(6-bromopyridin-2-yl)-1-hydroxyethyl]-2-thienyl}carbonyl)pyrimidin-4-yl]amino}-2,3-dihydroxycyclopentyl]methyl sulfamate] | 99 | < 10
2 | C[C@@](O)(c1cccc(Br)c1)c1csc(C(=O)c2cncnc2N[C@@H]2C[C@H](COS(N)(=O)=O)[C@@H](O)C2)c1.C[C@](O)(c1cccc(Br)c1)c1csc(C(=O)c2cncnc2N[C@@H]2C[C@H](COS(N)(=O)=O)[C@@H](O)C2)c1 (mixture of isomers) [I-3, [(1R,2S,4R)-4-{[5-({4-[(1S)-1-(3-Bromophenyl)-1-hydroxyethyl]-2-thienyl}carbonyl)pyrimidin-4-yl]amino}-2-hydroxycyclopentyl]methyl sulfamate and [(1R,2S,4R)-4-{[5-({4-[(1R)-1-(3-Bromophenyl)-1-hydroxyethyl]-2-thienyl}carbonyl)pyrimidin-4-yl]amino}-2-hydroxycyclopentyl]methyl sulfamate] | 100 | < 10
3 | NS(=O)(=O)OC[C@H]1C[C@@H](Nc2ncncc2C(=O)c2cc([C@H](O)c3cccc(Cl)c3)cs2)C[C@@H]1O (mixture of isomers) [I-4, [(1R,2S,4R)-4-{[5-({4-[(R)-(3-chlorophenyl)(hydroxy)methyl]-2-thienyl}carbonyl)pyrimidin-4-yl]amino}-2-hydroxycyclopentyl]methyl sulfamate and [(1R,2S,4R)-4-{[5-({4-[(S)-(3-chlorophenyl)(hydroxy)methyl]-2-thienyl}carbonyl)pyrimidin-4-yl]amino}-2-hydroxycyclopentyl]methyl sulfamate] | 99 | < 10
4 | CC(O)(c1cccc(Cl)c1)c1csc(C(=O)c2cncnc2NC2CC(O)C(COS(N)(=O)=O)C2)c1 (mixture of isomers) [I-5, [(1R,2S,4R)-4-{[5-({4-[(1R)-1-(3-chlorophenyl)-1-hydroxyethyl]-2-thienyl}carbonyl)pyrimidin-4-yl]amino}-2-hydroxycyclopentyl]methyl sulfamate and [(1R,2S,4R)-4-{[5-({4-[(1S)-1-(3-chlorophenyl)-1-hydroxyethyl]-2-thienyl}carbonyl)pyrimidin-4-yl]amino}-2-hydroxycyclopentyl]methyl sulfamate] | 99 | < 10
5 | Cc1sc(C(=O)c2cncnc2NC2CC(O)C(COS(N)(=O)=O)C2)cc1C(N)c1cccc(Cl)c1 (mixture of isomers) [I-6, [(1R,2S,4R)-4-{[5-({4-[(R)-amino(3-chlorophenyl)methyl]-5-methyl-2-thienyl}carbonyl)pyrimidin-4-yl]amino}-2-hydroxycyclopentyl]methyl sulfamate and [(1R,2S,4R)-4-{[5-({4-[(S)-amino(3-chlorophenyl)methyl]-5-methyl-2-thienyl}carbonyl)pyrimidin-4-yl]amino}-2-hydroxycyclopentyl]methyl sulfamate] | 98 | < 10
6 | Cc1sc(C(=O)c2cncnc2NC2CC(O)C(COS(N)(=O)=O)C2)cc1C(O)c1cccc(Cl)c1 (mixture of isomers) [I-11, [(1R,2S,4R)-4-{[5-({4-[(R)-(3-chlorophenyl)(hydroxy)methyl]-5-methyl-2-thienyl}carbonyl)pyrimidin-4-yl]amino}-2-hydroxycyclopentyl]methyl sulfamate and [(1R,2S,4R)-4-{[5-({4-[(S)-(3-chlorophenyl)(hydroxy)methyl]-5-methyl-2-thienyl}carbonyl)pyrimidin-4-yl]amino}-2-hydroxycyclopentyl]methyl sulfamate] | 99 | < 10
7 | CC(N)(c1cccc(Cl)c1)c1csc(C(=O)c2cncnc2NC2CC(O)C(COS(N)(=O)=O)C2)c1 (mixture of isomers) [I-12, [(1R,2S,4R)-4-{[5-({4-[(1S)-1-amino-1-(3-chlorophenyl)ethyl]-2-thienyl}carbonyl)pyrimidin-4-yl]amino}-2-hydroxycyclopentyl]methyl sulfamate and [(1R,2S,4R)-4-{[5-({4-[(1R)-1-amino-1-(3-chlorophenyl)ethyl]-2-thienyl}carbonyl)pyrimidin-4-yl]amino}-2-hydroxycyclopentyl]methyl sulfamate] | 99 | < 10
8 | NS(=O)(=O)OCC1CC(Nc2ncncc2C(=O)c2cc(C(O)c3cccc(Cl)c3)c(CO)s2)CC1O (mixture of isomers) [I-13, [(1R,2S,4R)-4-{[5-({4-[(R)-(3-chlorophenyl)(hydroxy)methyl]-5-(hydroxymethyl)-2-thienyl}carbonyl)pyrimidin-4-yl]amino}-2-hydroxycyclopentyl]methyl sulfamate and [(1R,2S,4R)-4-{[5-({4-[(S)-(3-chlorophenyl)(hydroxy)methyl]-5-(hydroxymethyl)-2-thienyl}carbonyl)pyrimidin-4-yl]amino}-2-hydroxycyclopentyl]methyl sulfamate] | 100 | < 10
9 | NC(c1cccc(Cl)c1)c1cc(C(=O)c2cncnc2NC2CC(O)C(COS(N)(=O)=O)C2)sc1Cl (mixture of isomers) [I-15, [(1R,2S,4R)-4-{[5-({4-[(R)-amino(3-chlorophenyl)methyl]-5-chloro-2-thienyl}carbonyl)pyrimidin-4-yl]amino}-2-hydroxycyclopentyl]methyl sulfamate and [(1R,2S,4R)-4-{[5-({4-[(S)-amino(3-chlorophenyl)methyl]-5-chloro-2-thienyl}carbonyl)pyrimidin-4-yl]amino}-2-hydroxycyclopentyl]methyl sulfamate] | 100 | < 10
10 | NS(=O)(=O)OCC1CC(Nc2ncncc2C(=O)c2cc(C(O)c3cccc(Br)c3)cs2)CC1O (mixture of isomers) [I-17, [(1R,2S,4R)-4-{[5-({4-[(R)-(3-bromophenyl)(hydroxy)methyl]-2-thienyl}carbonyl)pyrimidin-4-yl]amino}-2-hydroxycyclopentyl]methyl sulfamate and [(1R,2S,4R)-4-{[5-({4-[(S)-(3-bromophenyl)(hydroxy)methyl]-2-thienyl}carbonyl)pyrimidin-4-yl]amino}-2-hydroxycyclopentyl]methyl sulfamate] | 99 | < 10
11 | NC(c1cccc(Br)n1)c1cc(C(=O)c2cncnc2NC2CC(O)C(COS(N)(=O)=O)C2)sc1Cl (mixture of isomers) [I-18, [(1R,2S,4R)-4-{[5-({4-[(R)-amino(6-bromopyridin-2-yl)methyl]-5-chloro-2-thienyl}carbonyl)pyrimidin-4-yl]amino}-2-hydroxycyclopentyl]methyl sulfamate and [(1R,2S,4R)-4-{[5-({4-[(S)-amino(6-bromopyridin-2-yl)methyl]-5-chloro-2-thienyl}carbonyl)pyrimidin-4-yl]amino}-2-hydroxycyclopentyl]methyl sulfamate] | 99 | < 10
